Legend:
Female Wistar rats [1] = test: Basal sensitivity to colorectal distension model; type: in vivo, rat; conditions: 3 mg/kg or 10 mg/kg subcutaneously; CRD measured 3 hrs 15 minutes later
Female Wistar rats [2] = test: Partial restraint stress-induced hyperalgesia model; type: in vivo, rat; conditions: 3 mg/kg or 10 mg/kg SC one hour prior to 2 h PRS, CRD 15 minutes after PRS
Procedure: Female Wistar rats surgically prepared for electromyography as described in Example 1 were used to evaluate the effects of the FAAH inhibitors (a) compound A or (b) compound B, on colorectal sensitivity and compliance after a 2 hour partial restraint stress session.
Partial restraint stress (PRS), a relatively mild stress, was induced as previously described (Morteau et al. Dig. Dis. Sci. 1994: 39:1239-48; “Guanylate cyclase C-mediated antinociceptive effects of linaclotide in rodent models of visceral pain”, Eutamene H, Bradesi S, Larauche M, Theodorou V, Beaufrand C, Ohning G, Fioramonti J, Cohen M, Bryant A P, Kurtz C, Currie M G, Mayer E A, Bueno L, Neurogastroenterology and motility —2010 Volume: 22 p. 312-322; “Stress-induced changes in intestinal transit in the rat: a model for irritable bowel syndrome”, Williams C L, Villar R G, Peterson J M, Burks T F, Gastroenterology—1988 p. 611-21). Female rats were lightly anesthetized with diethyl ether and their shoulders, upper forelimbs and thoracic trunk were wrapped in a confining harness of paper tape to restrict, but not prevent body movements. Control sham-stress animals were anesthetized but not wrapped. […]
Rats were treated orally with compound A (30 mg/kg in DMSO/cremophor/isotonic saline (1:1:8 v:v:v), n=8), or vehicle only (DMSO/cremophor/isotonic saline (1:1:8 v:v:v), 1 mL, n=9) with or without 2 hour PRS sessions. The number of abdominal contractions was recorded by electromyography per 5-minute period (y axis) for each distension pressure of 0 mmHg, 15 mmHg, 30 mmHg, 45 mmHg and 60 mmHg (x axis); the ? symbols represent the results for the control+vehicle group (n=9); the symbols ? represent the results for the stress+vehicle group (n=9); the symbols ? represent the results for the stress+compound A group (n=8). Data are mean values with SEM.
Rats were treated orally with compound B (30 mg/kg in DMSO/cremophor/isotonic saline (1:1:8 v:v:v), n=9), or vehicle only (DMSO/cremophor/isotonic saline (1:1:8 v:v:v), 1 mL, n=9) with or without 2 hour PRS sessions. The number of abdominal contractions was recorded by electromyography per 5-minute period (y axis) for each distension pressure of 0 mmHg, 15 mmHg, 30 mmHg, 45 mmHg and 60 mmHg (x axis); the symbols ? represent the results for the control+vehicle group (n=9); the symbols ? represent the results for the stress+vehicle group (n=9); and the symbols ? represent the results for the stress+compound B group (n=9). Data are mean values with SEM.
The effect of FAAH inhibitor URB597 was tested at 3 mg/kg and 10 mg/kg in the PRS model of visceral hyperalgesia essentially as described in Examples 1 and 2. URB597 was formulated as a suspension in vehicle [DMSO/cremophor/isotonic saline (1:1:8 v:v:v)]. […]

NC(=O)c1cccc(-c2cccc(OC(=O)NC3CCCCC3)c2)c1 [URB597, 3′-(aminocarbonyl) biphenyl-3-yl cyclohexyl carbamate, reference compound] was tested, and the “basal sensitivity to colorectal distension (number of abdominal contractions)” value (Female Wistar rats [1]) was “does not alter basal sensitivity”, the “number of abdominal contractions (antihyperalgesic effect) in PRS model” value (Female Wistar rats [2]) was “did not exhibit an antihyperalgesic effects” and the “number of abdominal contractions (antihyperalgesic effect) in PRS model” value (Female Wistar rats [2]; listed as URB-597) was “no differences in number of abdominal contractions were observed”.

Source: patent US20130224151A1, “Use of FAAH Inhibitors for Treating Abdominal, Visceral and Pelvic Pain” (UNITED STATES OF AMERICA, priority 2010, published 2013)
